Measured values from patent US5628328A, “Method for measuring muscle mass” (priority 1995, dated 1997).
Where two headings read alike, the source gives them in different places.

Key:
[1] = cattle; cited from earlier work
[2] = parameters: species or system cattle; conditions: bovine, in vivo
From the text: For cattle, the same three-compartment model was used as described herein. With respect to sheep, the model differs from that shown in FIG. 1 in that de novo production of 3-methylhistidine is shown in compartment 2 and additionally, exit from compartment 3 occurs as well as from compartment 1 into urine. With respect to swine, again, de novo production of 3-methylhistidine is shown in compartment 2, and exit to urine is from compartment 3.
Urinary 3-methylhistidine may be used in cattle and humans as an index of muscle protein breakdown but is invalid for use in pigs and lambs. […] Previously, in validating urinary 3-methylhistidineas an index of muscle proteolysis, researchers have injected ^14 C-3-methylhistidine intravenously and recovered the tracer in urine but have never described its decay in plasma. In constructing the 3-compartment model, we kept in mind known physiology of 3-methylhistidine. It has been established that there are pools of 3-methylhistidine in plasma, in other extracellular fluid pools, within muscle and in other tissues. […] Based on comparison of fits, a 3-compartment model was the best model to describe the metabolism of 3-methylhistidine; however, 2- and 4-compartment models as well as other configurations were also evaluated. […]

[3] = cited from earlier work
[4] = sheep, cited from earlier work
[5] = cited from earlier work; remark: listed apart in the source
[6] = cattle, cited from earlier work
[7] = sheep, cited from earlier work; remark: listed apart in the source
[8] = parameters: species or system cattle; conditions: bovine, in vivo; remark: listed apart in the source
Protocol: A minimal model using 4-5 measurements and one compartment rather than three was evaluated. In the minimal model the three pools of the 3-compartment model were combined to form one homogeneous pool of 3-methylhistidine, characterized by a de novo production into the body pool and one exit from the model. The kinetic data between 720 and 4320 min was used for the analysis; this time frame corresponds to apparent linear steady state portion of the decay curve. The limitation of the 1-compartment model is the lost ability to described the entire metabolism of 3-methylhistidine. Only the rate of proteolysis and a total pool size can be estimated. […] (Rathmacher, J. et al., "The use of compartmental models of 3-methylhistidine flux to evaluate skeletal muscle protein turnover in implanted steers," J. Anim. Sci. (1993) 71:135.) However, in cattle the minimal model estimates of 3-methylhistidine production were 30% higher, but the estimates of 3-methylhistidine production were highly correlated (r=0.93, P 0.0001).

[9] = parameters: species or system dogs; conditions: dog, in vivo
From the text: Urinary 3-methylhistidine may be used in cattle and humans as an index of muscle protein breakdown but is invalid for use in pigs and lambs. […] Previously, in validating urinary 3-methylhistidineas an index of muscle proteolysis, researchers have injected ^14 C-3-methylhistidine intravenously and recovered the tracer in urine but have never described its decay in plasma. In constructing the 3-compartment model, we kept in mind known physiology of 3-methylhistidine. It has been established that there are pools of 3-methylhistidine in plasma, in other extracellular fluid pools, within muscle and in other tissues. The primary fate of 3-methylhistidine in humans, cattle and dogs is into urine (model exit from compartment 1), but in sheep and pigs there is a balenine pool in muscle that accumulates over time (model exit from compartment 3). The kinetic data were initially fitted to three exponential terms, indicating the possibility of a three compartment model. […] Model code 10 of SAAM was used and the models were based on a set of linear differential equations having constant coefficients. Based on comparison of fits, a 3-compartment model was the best model to describe the metabolism of 3-methylhistidine; however, 2- and 4-compartment models as well as other configurations were also evaluated. […]

[10] = dogs, cited from earlier work
[11] = rabbit; cited from earlier work
[12] = cited from earlier work; remark: listed apart in the source
[13] = cited from earlier work; remark: listed apart in the source
[14] = adult rat, Millward et al. 1980

Compound: Cn1cnc(C[C@H](N)C(=O)O)c1 [3-methylhistidine]
- Urinary excretion [1]: quantitatively excreted in the urine
- Model 3-methylhistidine production versus urinary production [2]: qualitatively similar
- 3-methylhistidine excretion during exercise ([3]; humans): insignificant increase
- 3-methylhistidine excretion during recovery from exercise ([3]; humans): significant increase
- Urinary excretion ([3]; man): quantitatively excreted in the urine
- 3MH Production ([4]; n=36, from model): 10.1 µmol/kg/day
- M1, compartment mass ([4]; n=36): 4693 nmol/kg
- M2, compartment mass ([4]; n=36): 11634 nmol/kg
- M3, compartment mass ([4]; n=36): 16494 nmol/kg
- R01 mass transfer rate ([4]; n=36): 1.4 nmol/kg/min
- R03 mass transfer rate ([4]; n=36): 5.7 nmol/kg/min
- R12 mass transfer rate ([4]; n=36): 930 nmol/kg/min
- R21 mass transfer rate ([4]; n=36): 928 nmol/kg/min
- R23 mass transfer rate ([4]; n=36): 80 nmol/kg/min
- R32 mass transfer rate ([4]; n=36): 84 nmol/kg/min
- L0,1 fractional transfer rate ([4]; number 40): .0003 min⁻¹
- L0,3 fractional transfer rate ([4]; number 40): .0004 min⁻¹
- L1,2 fractional transfer rate ([4]; number 40): .08 min⁻¹
- L2,1 fractional transfer rate ([4]; number 40): .21 min⁻¹
- L2,3 fractional transfer rate ([4]; number 40): .005 min⁻¹
- L3,2 fractional transfer rate ([4]; number 40): .007 min⁻¹
- Urinary 3MH loss ([4]; number 40): 17 % of total
- Urinary excretion of total daily 3-methylhistidine produced [4]: 15%
- Contribution of skin and intestine to 3-methylhistidine excreted per day in urine ([5]; adult rat, Millward and Bates): 17%
- Contribution of gastrointestinal tract to 3-methylhistidine excreted [5, 14]: 10%
- Contribution of skeletal muscle to 3-methylhistidine excreted [5, 14]: 25%
- Contribution of skin to 3-methylhistidine excreted [5, 14]: 7%
- Reutilization for protein synthesis ([5]; no specific tRNA): not reutilized for protein synthesis
- Share of total bound 3-methylhistidine in skeletal muscle ([5]; rat organs, Haverberg et al., skin and intestine not assessed): 98%
- Urinary excretion ([5]; rat): quantitatively excreted in the urine
- Contribution of small intestine to 24-hour urinary excretion ([5]; rats, duodenoileostomy): did not make a significant contribution
- L2,1 fractional transfer rate ([6]; comparison): 0.18 min⁻¹
- 3MH Production ([6]; n=36, from model): 6.2 µmol/kg/day
- M1, compartment mass ([6]; n=36): 806 nmol/kg
- M2, compartment mass ([6]; n=36): 2106 nmol/kg
- M3, compartment mass ([6]; n=36): 7803 nmol/kg
- R01 mass transfer rate ([6]; n=36): 4.2 nmol/kg/min
- R12 mass transfer rate ([6]; n=36): 107 nmol/kg/min
- R21 mass transfer rate ([6]; n=36): 103 nmol/kg/min
- R23 mass transfer rate ([6]; n=36): 9.6 nmol/kg/min
- R32 mass transfer rate ([6]; n=36): 5.4 nmol/kg/min
- L0,1 fractional transfer rate ([6]; number 39): .006 min⁻¹
- L1,2 fractional transfer rate ([6]; number 39): .06 min⁻¹
- L2,1 fractional transfer rate ([6]; number 39): .18 min⁻¹
- L2,3 fractional transfer rate ([6]; number 39): .002 min⁻¹
- L3,2 fractional transfer rate ([6]; number 39): .003 min⁻¹
- Urinary 3MH loss ([6]; number 39): 100 % of total
- 3-methylhistidine excreted in urine [7]: approximately 15%
- Urinary excretion ([7]; retained in muscle as balenine): not quantitatively excreted in urine
- 3-methylhistidine production, minimal model above 3-compartment model [8]: 30%
- Model 3-methylhistidine production versus urinary production [9]: qualitatively similar
- 3MH Production ([10]; n=5, from model): 12 µmol/kg/day
- M1, compartment mass ([10]; n=5): 3227 nmol/kg
- M2, compartment mass ([10]; n=5): 7973 nmol/kg
- M3, compartment mass ([10]; n=5): 9261 nmol/kg
- R01 mass transfer rate ([10]; n=5): 9 nmol/kg/min
- R12 mass transfer rate ([10]; n=5): 329 nmol/kg/min
- R21 mass transfer rate ([10]; n=5): 319 nmol/kg/min
- R23 mass transfer rate ([10]; n=5): 56 nmol/kg/min
- R32 mass transfer rate ([10]; n=5): 56 nmol/kg/min
- L0,1 fractional transfer rate ([10]; number 5): .02 min⁻¹
- L1,2 fractional transfer rate ([10]; number 5): .06 min⁻¹
- L2,1 fractional transfer rate ([10]; number 5): .11 min⁻¹
- L2,3 fractional transfer rate ([10]; number 5): .008 min⁻¹
- L3,2 fractional transfer rate ([10]; number 5): .006 min⁻¹
- Urinary 3MH loss ([10]; number 5): 100 % of total
- Urinary excretion [11]: quantitatively excreted in the urine
- Urinary excretion ([12]; pigs, retained in muscle as balenine): not quantitatively excreted in urine
- 3-methylhistidine excreted into urine ([12]; swine, of 3-methylhistidine from muscle metabolism): less than 2%
- 3MH Production ([13]; pigs, n=20, from model): 7.2 µmol/kg/day
- M1, compartment mass ([13]; pigs, n=20): 1110 nmol/kg
- M2, compartment mass ([13]; pigs, n=20): 2857 nmol/kg
- M3, compartment mass ([13]; pigs, n=20): 6151 nmol/kg
- R03 mass transfer rate ([13]; pigs, n=20): 5.0 nmol/kg/min
- R12 mass transfer rate ([13]; pigs, n=20): 247 nmol/kg/min
- R21 mass transfer rate ([13]; pigs, n=20): 247 nmol/kg/min
- R23 mass transfer rate ([13]; pigs, n=20): 32 nmol/kg/min
- R32 mass transfer rate ([13]; pigs, n=20): 37 nmol/kg/min
- Urinary excretion of total daily 3-methylhistidine produced ([13]; pigs): 1.5 %/d
- L0,3 fractional transfer rate ([13]; swine, number 20): .0009 min⁻¹
- L1,2 fractional transfer rate ([13]; swine, number 20): .09 min⁻¹
- L2,1 fractional transfer rate ([13]; swine, number 20): .23 min⁻¹
- L2,3 fractional transfer rate ([13]; swine, number 20): .006 min⁻¹
- L3,2 fractional transfer rate ([13]; swine, number 20): .014 min⁻¹
- Urinary 3MH loss ([13]; swine, number 20): 1 % of total
